# Laboratory results: paper PMC8820820, “Feasibility and safety of targeting mitochondria for cancer therapy – preclinical characterization of gamitrinib, a first-in-class, mitochondriaL-targeted small molecule Hsp90 inhibitor” (Cancer Biology & Therapy, 2022)
# Several values for one entry are separate records, joined by “and”; a condition that tells them apart may be missing. Equal entries are not always repeated. Entries after “also recorded” stand apart in the source; their conditions may differ. Where two headings read alike, the source gives them in different places.
# Experiments:
# Sprague-Dawley rats = experiment: Toxicity in Sprague-Dawley rats; type: in vivo; conditions: for reduction in mean body weights: male rats, fully recoverable, not adverse
# Experimental: (§1) Ninety-six male and female Sprague-Dawley rats (6–7 weeks old) were received from Charles River Laboratories (Raleigh, NC) catheterized via a femoral vein prior to arrival. Animals were acclimated in individual stainless-steel cages with access to water and Certified Rodent Diet #2014 C (Envigo RMS) ad libitum for 6 d prior to study initiation. Environmental controls were set to maintain a temperature range of 20 to 26°C, a relative humidity range of 30 to 70%, eight or greater air changes/h, and a 12-h light/dark cycle. Animals were infused with sterile isotonic (0.9%) saline for a minimum of 4 d (0.20 mL/h for males or 0.15 mL/h for females) during the predose phase. At initiation of dosing, animals were 8 to 9 weeks old, and body weights ranged from 283 to 341 g for males and 188 to 238 g for females. Gamitrinib formulated as indicated above was administered by IV infusion on d 4, 8, 11, 15, 18, 22, 25, and 29 of the dosing phase at 1, 10, 25 mg/kg/dose and dose volume of 5 mL/kg. The vehicle control administered with the same schedule contained 2.5% DMSO, 0.125% polysorbate 80, 0.031% lecithin, 1.25% sucrose and 4.375% dextrose. Animals were checked twice daily throughout the duration of the study for mortality, abnormalities, and signs of pain or distress. Detailed observations were conducted for each animal up to two times during the predose phase and for each toxicity animal prior to dosing on d 1, 8, 15, 22, and 29 of the dosing phase and on d 1, 7, and 14 of the recovery phase. Blood samples were collected on d. 1, 4 and 29 of the dosing phase 5 min, 1 h and 24 h post-dose, maintained on chilled cryoracks and centrifuged within 1 h of collection. Tissue samples harvested from each animal were embedded in paraffin, sectioned, and slides were prepared and stained with hematoxylin and eosin.
# hERG = hERG (Homo sapiens, UniProt Q12809)
# [1] = Gamitrinib pharmacokinetics in rat plasma, single IV dose; type: in vivo, Sprague-Dawley rats
# Experimental: Sprague-Dawley rats (n = 3) were administered with a single intravenous (IV) dose of 1 mL Gamitrinib (5 mg/kg) formulated as described above without added microfluidization. Blood samples were collected via lateral tail vein using K2EDTA as an anticoagulant at 0.083, 0.25, 0.5, 1, 2, 4, and 24 h post-dose, chilled on ice, and centrifuged at 5000 rpm for 10 min. Aliquots (0.2 mL) of each plasma sample were stored frozen at −20°C. For analysis, 50 µL aliquots of the study samples were mixed with 50 µL of ACN/H2O (50:50), extracted by protein precipitation using ACN containing the internal standard Gamitrinib-d15 (100 ng/mL), and the aliquots of the supernatant were mixed with deionized water for Gamitrinib determination. Batch samples under analysis included a calibration curve, a matrix blank (blank rat plasma), a reagent blank, a control zero (blank rat plasma spiked with internal standard), and duplicate QC samples at three concentration levels (low, medium, and high) in addition to the study samples. Within each batch, the study samples were bracketed by calibration standards or QC samples. The lowest calibration standard served to evaluate system suitability at the beginning of each batch. […] Overall, the concentration of Gamitrinib was measured in 21 rat plasma samples in 1 analytical batch using LC-MS/MS data acquisition on a Shimadzu Nexera LC system coupled with an AB Sciex Triple Quad 5500 mass spectrometer. Chromatograms were integrated using Analyst 1.6.2 software. A weighted (1/x^2, x = concentration) linear regression was used to generate the calibration curve for Gamitrinib. […] The mean, standard deviation, precision, accuracy, and assay variability were calculated using Microsoft Excel.
# [2] = Toxicokinetics in rats, twice weekly IV for 29 d; type: in vivo, Sprague-Dawley rats
# Experimental: as §1
# [3] = Phase I, cytochrome P450-mediated human liver microsome metabolism; conditions: 0.5 µM, human liver microsomes
# Sequence of hERG (Q12809 whole entry): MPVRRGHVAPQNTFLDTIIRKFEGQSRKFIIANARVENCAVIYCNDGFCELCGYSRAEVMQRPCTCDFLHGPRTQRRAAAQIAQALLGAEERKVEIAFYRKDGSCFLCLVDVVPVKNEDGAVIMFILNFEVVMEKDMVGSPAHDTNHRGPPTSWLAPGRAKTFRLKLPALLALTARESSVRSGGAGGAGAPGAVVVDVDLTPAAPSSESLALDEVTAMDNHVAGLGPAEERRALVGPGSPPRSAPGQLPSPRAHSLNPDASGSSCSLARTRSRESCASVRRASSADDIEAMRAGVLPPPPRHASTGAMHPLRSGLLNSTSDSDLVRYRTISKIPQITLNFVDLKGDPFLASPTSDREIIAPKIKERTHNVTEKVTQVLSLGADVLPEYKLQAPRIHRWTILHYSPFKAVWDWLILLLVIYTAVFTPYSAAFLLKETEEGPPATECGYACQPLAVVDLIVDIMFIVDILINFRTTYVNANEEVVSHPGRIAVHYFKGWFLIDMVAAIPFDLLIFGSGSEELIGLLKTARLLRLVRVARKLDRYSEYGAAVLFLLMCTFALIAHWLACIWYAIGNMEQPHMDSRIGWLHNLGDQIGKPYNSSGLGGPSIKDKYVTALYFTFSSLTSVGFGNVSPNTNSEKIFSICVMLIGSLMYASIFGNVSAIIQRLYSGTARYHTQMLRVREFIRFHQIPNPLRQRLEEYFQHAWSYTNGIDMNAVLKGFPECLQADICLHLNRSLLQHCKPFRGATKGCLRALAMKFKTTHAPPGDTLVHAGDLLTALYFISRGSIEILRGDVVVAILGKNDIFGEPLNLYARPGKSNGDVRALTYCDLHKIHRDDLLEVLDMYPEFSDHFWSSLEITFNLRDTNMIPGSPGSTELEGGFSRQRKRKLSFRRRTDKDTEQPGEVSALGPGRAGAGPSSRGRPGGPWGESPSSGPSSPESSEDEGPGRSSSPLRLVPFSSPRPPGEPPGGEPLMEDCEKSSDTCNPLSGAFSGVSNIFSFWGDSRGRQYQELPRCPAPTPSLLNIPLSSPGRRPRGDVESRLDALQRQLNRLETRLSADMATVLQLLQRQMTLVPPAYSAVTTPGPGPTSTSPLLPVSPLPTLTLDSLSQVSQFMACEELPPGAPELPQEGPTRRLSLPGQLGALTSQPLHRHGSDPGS
compound,measurement,setting,value
COC1C=CC=C(C)C(=O)NC2=CC(=O)C(NCCCCCC[P+](c3ccccc3)(c3ccccc3)c3ccccc3)=C(CC(C)CC(OC)C(O)C(C)C=C(C)C1OC(N)=O)C2=O.F[P-](F)(F)(F)(F)F (stereo not shown) [Gamitrinib],reduction in mean body weights,Sprague-Dawley rats; 10 mg/kg/dose,−5.5%
same,reduction in mean body weights,Sprague-Dawley rats; 25 mg/kg/dose,−5.7%
same,urinalysis and ophthalmic findings,Sprague-Dawley rats; rats,No effects on urinalysis or ophthalmic changes
same,serum urea nitrogen (UN) and creatinine concentrations,"Sprague-Dawley rats; rats, 25 mg/kg/dose",Minimally to mildly higher
same,kidney microscopic findings,"Sprague-Dawley rats; rats, 25 mg/kg/dose, persisted to end of recovery",tubular degeneration/regeneration
same,non-observed adverse effect level (NOAEL),"Sprague-Dawley rats; rats, IV twice weekly for 29 d",1 mg/kg/dose
same,severely toxic dose in 10% of the animals (STD 10),"Sprague-Dawley rats; rats, IV twice weekly for 29 d",10 mg/kg/dose
same,alterations in clinical chemistry parameters,"Sprague-Dawley rats; rats, highest dose level tested","mildly to moderately higher neutrophil, and platelet (Plts) counts, minimally prolonged partial thromboplastin time (PT), lower albumin, higher globulin, and alkaline phosphatase concentrations"
same,Gamitrinib-related clinical observations,"Sprague-Dawley rats; rats, ≥10 mg/kg/dose","inguinal swelling, piloerection, hypoactivity, and sensitivity to touch at the infusion site"
same,microscopic findings at infusion site,"Sprague-Dawley rats; rats, ≥10 mg/kg/dose, both sexes, persisted through recovery",mixed cell inflammation at the catheter/infusion site
same,Gamitrinib-related mortality,"Sprague-Dawley rats; toxicity animals, 10 mg/kg/dose",one male
same,Gamitrinib-related mortality,"Sprague-Dawley rats; toxicity animals, 25 mg/kg/dose, severe inflammation and marked hemorrhage at infusion site","two males, one female"
same,Gamitrinib-related mortality,"Sprague-Dawley rats; toxicokinetic animals, 10 mg/kg/dose",two toxicokinetic females
same,Gamitrinib-related mortality,"Sprague-Dawley rats; toxicokinetic animals, 25 mg/kg/dose",one toxicokinetic female
same,IC50,hERG,3.5 µM
same,inhibition of hERG currents,hERG; 0.5 µM,−0.68 ± 3.95%
same,inhibition of hERG currents,hERG; 5 µM,65.95 ± 6.78%
same,hERG IC50 over IC50 of inhibition of tumor growth in NCI 60-cell line screen,hERG; ratio,up to 20 fold
same,AUCINF,"[1]; 5 mg/kg IV, Mean (n = 3)",976.002 ng·h/mL
same,AUClast (AUC0-t),"[1]; 5 mg/kg IV, Mean (n = 3)",783.1 ± 71.3 ng·h/mL and 783.199 ng·h/mL
same,CL,"[1]; 5 mg/kg IV, Mean (n = 3)",85.6 ± 5.8 mL/min/kg and 85.65 ± 5.85 mL/min/kg and 85.656 mL/min/kg
same,MRT,"[1]; 5 mg/kg IV, Mean (n = 3)",5.492 h
same,Vss,"[1]; 5 mg/kg IV, Mean (n = 3)",65.471 L/kg
same,Vz,"[1]; 5 mg/kg IV, Mean (n = 3)",91.159 L/kg
same,t1/2,"[1]; 5 mg/kg IV, Mean (n = 3)",12.2 ± 1.55 h and 12.250 h
same,AUCINF,"[1]; 5 mg/kg IV, Rat 1",1051.752 ng·h/mL
same,AUClast,"[1]; 5 mg/kg IV, Rat 1",851.441 ng·h/mL
same,CL,"[1]; 5 mg/kg IV, Rat 1",79.233 mL/min/kg
same,Cmax,"[1]; 5 mg/kg IV, Rat 1",1153.712 ng/mL
same,MRT,"[1]; 5 mg/kg IV, Rat 1",5.539 h
same,Vss,"[1]; 5 mg/kg IV, Rat 1",58.230 L/kg
same,Vz,"[1]; 5 mg/kg IV, Rat 1",79.715 L/kg
same,t1/2,"[1]; 5 mg/kg IV, Rat 1",11.623 h
same,AUCINF,"[1]; 5 mg/kg IV, Rat 2",957.472 ng·h/mL
same,AUClast,"[1]; 5 mg/kg IV, Rat 2",789.045 ng·h/mL
same,CL,"[1]; 5 mg/kg IV, Rat 2",87.035 mL/min/kg
same,Cmax,"[1]; 5 mg/kg IV, Rat 2",829.668 ng/mL
same,MRT,"[1]; 5 mg/kg IV, Rat 2",5.411 h
same,Vss,"[1]; 5 mg/kg IV, Rat 2",60.052 L/kg
same,Vz,"[1]; 5 mg/kg IV, Rat 2",83.678 L/kg
same,t1/2,"[1]; 5 mg/kg IV, Rat 2",11.107 h
same,AUCINF,"[1]; 5 mg/kg IV, Rat 3",918.784 ng·h/mL
same,AUClast,"[1]; 5 mg/kg IV, Rat 3",709.112 ng·h/mL
same,CL,"[1]; 5 mg/kg IV, Rat 3",90.700 mL/min/kg
same,Cmax,"[1]; 5 mg/kg IV, Rat 3",1544.041 ng/mL
same,MRT,"[1]; 5 mg/kg IV, Rat 3",5.524 h
same,Vss,"[1]; 5 mg/kg IV, Rat 3",78.131 L/kg
same,Vz,"[1]; 5 mg/kg IV, Rat 3",110.085 L/kg
same,t1/2,"[1]; 5 mg/kg IV, Rat 3",14.022 h
same,Gamitrinib plasma concentration,"[1]; 5 mg/kg IV, animal 1, 5 min",622.199 ng/mL
same,Gamitrinib plasma concentration,"[1]; 5 mg/kg IV, animal 1, 15 min",180.951 ng/mL
same,Gamitrinib plasma concentration,"[1]; 5 mg/kg IV, animal 1, 30 min",106.381 ng/mL
same,Gamitrinib plasma concentration,"[1]; 5 mg/kg IV, animal 1, 60 min",71.445 ng/mL
same,Gamitrinib plasma concentration,"[1]; 5 mg/kg IV, animal 1, 120 min",46.657 ng/mL
same,Gamitrinib plasma concentration,"[1]; 5 mg/kg IV, animal 1, 240 min",36.816 ng/mL
same,Gamitrinib plasma concentration,"[1]; 5 mg/kg IV, animal 1, 1440 min",11.946 ng/mL
same,Gamitrinib plasma concentration,"[1]; 5 mg/kg IV, animal 2, 5 min",526.229 ng/mL
same,Gamitrinib plasma concentration,"[1]; 5 mg/kg IV, animal 2, 15 min",211.686 ng/mL
same,Gamitrinib plasma concentration,"[1]; 5 mg/kg IV, animal 2, 30 min",114.230 ng/mL
same,Gamitrinib plasma concentration,"[1]; 5 mg/kg IV, animal 2, 60 min",65.903 ng/mL
same,Gamitrinib plasma concentration,"[1]; 5 mg/kg IV, animal 2, 120 min",43.125 ng/mL
same,Gamitrinib plasma concentration,"[1]; 5 mg/kg IV, animal 2, 240 min",34.776 ng/mL
same,Gamitrinib plasma concentration,"[1]; 5 mg/kg IV, animal 2, 1440 min",10.511 ng/mL
same,Gamitrinib plasma concentration,"[1]; 5 mg/kg IV, animal 3, 5 min",674.432 ng/mL
same,Gamitrinib plasma concentration,"[1]; 5 mg/kg IV, animal 3, 15 min",128.663 ng/mL
same,Gamitrinib plasma concentration,"[1]; 5 mg/kg IV, animal 3, 30 min",67.204 ng/mL
same,Gamitrinib plasma concentration,"[1]; 5 mg/kg IV, animal 3, 60 min",55.991 ng/mL
same,Gamitrinib plasma concentration,"[1]; 5 mg/kg IV, animal 3, 120 min",29.914 ng/mL
same,Gamitrinib plasma concentration,"[1]; 5 mg/kg IV, animal 3, 240 min",28.905 ng/mL
same,Gamitrinib plasma concentration,"[1]; 5 mg/kg IV, animal 3, 1440 min",10.365 ng/mL
same,generation of metabolite 17-AG,"[1]; rats, IV Gamitrinib 5 mg/kg, plasma",without generation of 17-AG; also recorded: did not generate detectable levels; also recorded: no generation of 17-AG
same,drug accumulation,[2]; Cmax and AUC0–24 d 4 vs d 29,no drug accumulation after multiple doses
same,AUC0–24,"[2]; rat, in vivo, 1 mg/kg",174 ng·h/mL
same,AUC0–24,"[2]; rat, in vivo, 10 mg/kg",1300 ng·h/mL
same,CLSS,"[2]; rat, in vivo, iv, 25 mg/kg",84.83 to 131.33 mL/min/kg
same,VSS,"[2]; rat, in vivo, iv, 25 mg/kg",12.2 to 90.0 L/kg
same,elimination rate constant (k),[3],0.041
same,half-life (t½),[3],0.278 h
same,intrinsic clearance (CLint),[3],3.30 mL/min/g
